# Source: US20090281136A1, “PRASUGREL PHARMACEUTICAL FORMULATIONS” (priority 2008, published 2009)
# Assay: Drug-excipient compatibility study (impurity formation on storage at 40° C. and 75% relative humidity)
# Assay type: physicochemical
# Method: Prasugrel hydrochloride and mixtures with excipients in the weight ratios stated below are mixed well and sifted through an ASTM #40 mesh sieve. The mixture is placed into open glass vials, stored at 40° C. and 75% relative humidity for four weeks, and samples are analyzed at intervals to evaluate the extent of impurity formation. Values for impurities in the table below are calculated as percent by weight of the original prasugrel content.
compound,measurement,setting,value
"CC(=O)Oc1cc2c(s1)CCN(C(C(=O)C1CC1)c1ccccc1F)C2 (stereo not drawn) [Prasugrel, 5-[2-cyclopropyl-1-(2-fluorophenyl)-2-oxoethyl]-4,5,6,7-tetrahydrothieno[3,2-c]pyridin-2-yl acetate]","Total Impurities, 1 Week","1 week at 40° C. and 75% relative humidity, open glass vials",0.6547 percent by weight of the original prasugrel content
same,"Total Impurities, 2 Weeks","2 weeks at 40° C. and 75% relative humidity, open glass vials",0.6982 percent by weight of the original prasugrel content
same,"Total Impurities, 3 Weeks","3 weeks at 40° C. and 75% relative humidity, open glass vials",0.7488 percent by weight of the original prasugrel content
same,"Total Impurities, 4 Weeks","4 weeks at 40° C. and 75% relative humidity, open glass vials",0.8998 percent by weight of the original prasugrel content
same,"Total Impurities, Initial","Initial, open glass vials",0.6301 percent by weight of the original prasugrel content
same,Stability in the presence of the excipients studied,accelerated stability testing conditions,acceptable stability
